# Measurements published in ChEMBL document CHEMBL1139640, “Water soluble prodrug of a COX-2 selective inhibitor suitable for intravenous administration in models of cerebral ischemia” (Bioorg Med Chem Lett, 2005).
# Legend:
# Rattus norvegicus [1] = assay: Plasma concentration of compound 1 in Sprague-Dawley rats upon 2 mg/kg iv dose of prodrug after 30 minutes; type: functional, organism-based; parameters: dose 2 mg/kg
# [2] = biological target: T1, Prostaglandin G/H synthase 2 (Homo sapiens, UniProt P35354); assay: Inhibitory concentration against prostaglandin G/H synthase 2 in human whole blood
# T1 sequence (P35354 whole entry): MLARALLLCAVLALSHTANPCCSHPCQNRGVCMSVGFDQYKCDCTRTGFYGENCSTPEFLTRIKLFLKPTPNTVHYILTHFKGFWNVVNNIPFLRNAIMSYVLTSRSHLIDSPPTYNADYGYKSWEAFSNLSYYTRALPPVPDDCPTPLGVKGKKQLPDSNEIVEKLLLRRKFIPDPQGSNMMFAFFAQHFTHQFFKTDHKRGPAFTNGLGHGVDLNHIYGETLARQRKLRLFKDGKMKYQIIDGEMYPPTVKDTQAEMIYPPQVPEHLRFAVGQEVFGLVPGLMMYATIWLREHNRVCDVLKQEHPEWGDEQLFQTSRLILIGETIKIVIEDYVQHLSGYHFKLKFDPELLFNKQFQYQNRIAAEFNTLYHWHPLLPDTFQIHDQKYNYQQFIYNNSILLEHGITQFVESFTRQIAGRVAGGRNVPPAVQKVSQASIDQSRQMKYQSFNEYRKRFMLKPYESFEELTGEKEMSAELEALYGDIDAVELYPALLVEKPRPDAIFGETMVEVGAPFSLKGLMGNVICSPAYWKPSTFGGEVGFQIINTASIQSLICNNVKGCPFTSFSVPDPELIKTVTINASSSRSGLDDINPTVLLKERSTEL
# [3] = biological target: Prostaglandin G/H synthase 1 (Homo sapiens, UniProt P23219); assay: Inhibitory concentration against prostaglandin G/H synthase 1 in human whole blood; type: tissue-based
# Sequence of Prostaglandin G/H synthase 1 (P23219 whole entry, the tested form may be a part): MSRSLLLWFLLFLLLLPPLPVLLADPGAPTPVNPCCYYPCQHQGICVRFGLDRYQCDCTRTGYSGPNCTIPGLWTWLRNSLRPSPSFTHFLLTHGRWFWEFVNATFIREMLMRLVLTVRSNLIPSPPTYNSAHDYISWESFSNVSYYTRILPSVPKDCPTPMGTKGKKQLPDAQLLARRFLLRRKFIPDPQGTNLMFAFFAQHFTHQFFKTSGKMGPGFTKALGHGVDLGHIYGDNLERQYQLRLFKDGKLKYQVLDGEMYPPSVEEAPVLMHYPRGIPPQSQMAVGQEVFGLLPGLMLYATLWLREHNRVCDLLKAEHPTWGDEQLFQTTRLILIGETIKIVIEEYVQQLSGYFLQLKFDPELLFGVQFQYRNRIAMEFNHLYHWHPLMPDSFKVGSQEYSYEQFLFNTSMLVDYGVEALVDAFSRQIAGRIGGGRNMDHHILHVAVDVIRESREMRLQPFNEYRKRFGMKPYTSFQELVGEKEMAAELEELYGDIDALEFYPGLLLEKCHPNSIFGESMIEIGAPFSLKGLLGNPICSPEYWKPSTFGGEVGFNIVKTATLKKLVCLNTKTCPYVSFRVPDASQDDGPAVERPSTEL
# Rattus norvegicus [4] = assay: Concentration of compound 16 in brain of Sprague-Dawley rats upon 5 mg/kg bolus+ 3 mg/Kg/h infusion of compound after 24 hours; type: functional, organism-based
# Rattus norvegicus [5] = assay: Concentration of compound 16 in plasma of Sprague-Dawley rats upon 10 mg/kg bolus+ 5 mg/Kg/h infusion of compound after 24 hours; type: functional, organism-based
# Rattus norvegicus [6] = assay: Concentration of compound 16 in plasma of Sprague-Dawley rats upon 5 mg/kg bolus+ 3 mg/Kg/h infusion of compound after 6 hours; type: functional, organism-based
# Rattus norvegicus [7] = assay: Ratio of concentration of compound 16 in brain to that of plasma of Sprague-Dawley rats upon 5 mg/kg bolus+ 3 mg/Kg/h infusion of compound after 24 hours; type: functional
# Rattus norvegicus [8] = assay: Concentration of compound 16 in plasma of Sprague-Dawley rats upon 10 mg/kg bolus+ 5 mg/Kg/h infusion of compound after 6 hours; type: functional, organism-based
# Rattus norvegicus [9] = assay: Ratio of concentration of compound 16 in brain to that of plasma of Sprague-Dawley rats upon 10 mg/kg bolus+ 5 mg/Kg/h infusion of compound after 24 hours; type: functional
# Rattus norvegicus [10] = assay: Concentration of compound 16 in plasma of Sprague-Dawley rats upon 5 mg/kg bolus+ 3 mg/Kg/h infusion of compound after 24 hours; type: functional, organism-based
# Rattus norvegicus [11] = assay: Concentration of compound 16 in brain of Sprague-Dawley rats upon 10 mg/kg bolus+ 5 mg/Kg/h infusion of compound after 24 hours; type: functional, organism-based
# Rattus norvegicus [12] = assay: Concentration of compound 1 in plasma of Sprague-Dawley rats upon 10 mg/kg iv dose after 3 hours; type: functional, organism-based; parameters: dose 10 mg/kg
# Rattus norvegicus [13] = assay: Concentration of compound 1 in brain of Sprague-Dawley rats upon 10 mg/kg iv dose after 3 hours; type: functional, organism-based; parameters: dose 10 mg/kg
smiles,measurement,setting,value
CCOC(=O)/C(=C(\COC(=O)[C@@H](N)CCCCN)c1ccc(S(C)(=O)=O)cc1)c1ccc(F)c(F)c1,Concentration,Rattus norvegicus [1],0.4 µM
CCOC(=O)[C@H](N)COC(=O)/C(=C(\COC(C)=O)c1ccc(S(C)(=O)=O)cc1)c1ccc(F)c(F)c1,Concentration,Rattus norvegicus [1],1.4 µM
CS(=O)(=O)c1ccc(C2=C(c3cccc(F)c3)C(=O)OC2)cc1,IC50,[2],1.3 µM
same,IC50,[3],65 µM
CC(=O)OC/C(=C(\C(=O)OCC[N+](C)(C)C)c1cccc(F)c1)c1ccc(S(C)(=O)=O)cc1.[Br-],Concentration,Rattus norvegicus [4],5.5 µM
same,Concentration,Rattus norvegicus [5],20 µM
same,Concentration,Rattus norvegicus [6],6 µM
same,Ratio,Rattus norvegicus [7],59%
same,Concentration,Rattus norvegicus [8],16 µM
same,Ratio,Rattus norvegicus [9],55%
same,Concentration,Rattus norvegicus [10],9.2 µM
same,Concentration,Rattus norvegicus [11],11 µM
CC(=O)OC/C(=C(\C(=O)OCC[N+](C)(C)C)c1ccc(F)c(F)c1)c1ccc(S(C)(=O)=O)cc1,Concentration,Rattus norvegicus [1],0.9 µM
same,Concentration,Rattus norvegicus [12],1.4 µM
same,Concentration,Rattus norvegicus [13],0.7 µM
